Source: US11208446B2, “Agents and methods for treating CBP-dependent cancers” (priority 2016, dated 2021)

Key:
[1] = test system: MOLM13, MV411, ML2, and HL60 cell lines; experiment: Cell viability, live cell count by Trypan blue exclusion; assay type: cell-based, human; conditions: 10 μM and 20 μM every 48 hours for 6 days
Protocol: Cell culture. The human AML lines MV411, MOLM13, ML2, and HL60 were obtained from the American Type Culture Collection (ATCC, Manassas, Va., USA). Umbilical cord blood was obtained from the New York Blood Center. The identity of all cell lines was verified by STR analysis (Genetica DNA Laboratories, Burlington, N.C., USA) and absence of Mycoplasma sp. contamination was determined using Lonza MycoAlert (Lonza Walkersville, Inc., Walkersville, Md., USA). Cell lines were cultured in 5% CO2 in a humidified atmosphere at 37° C. in RPMI medium supplemented with 10% fetal bovine serum (FBS) and antibiotics (100 U/ml penicillin and 100 μg/ml streptomycin). Cell viability analysis. Cells were resuspended and plated at a concentration of 2×10^5 cells in 200 μL in 96-well tissue culture plates. Media with peptides was replaced every 48 hours. To assess the number of viable cells, cells were resuspended in PBS and 10 μL mixed in a 1:1 ratio with 0.4% Trypan Blue (Thermo Fisher) and counted using a hematocytometer (Hausser Scientific, Horsham, Pa., USA). To assess viability using an ATP-based assay, cell viability was assessed using the CellTiter-Glo Luminescent Viability assay, according to the manufacturer's instructions (Promega). Luminescence was recorded using the Infinite M1000Pro plate reader using integration time of 250 milliseconds (Tecan).

MV411 cells = experiment: Flow cytometric analysis of apoptosis (Annexin-V); assay type: cell-based, human; conditions: 20 μM, 24 hours
Protocol: Flow cytometric analysis of Apoptosis. Cells were resuspended to a concentration of 1×10^6 cells were plated in triplicate in a 12-well tissue culture plate. For assessment of annexin V staining, cells were washed with PBS and then resuspended in PBS with Annexin V-APC (BioLegend) and propidium iodide at a dilution of 1:1000. For intracellular detection of cleaved caspase 3, cells were fixed and permeabilized using the BD Cytofix/Cytoperm Fixation/Permeabilization solution according to the manufacturer's instructions (BD Biosciences. Cells were then stained using the Alexa Fluor 647-conjugated anti-active caspase-3 (BD Biosciences) at a dilution of 1:50. Cells were incubated for 30 minutes room temperature in the dark, washed, and then analyzed using the BD LSRFortessa cell analyzer.

[2] = test system: MYC and BCL2 mRNA expression; experiment: RT-qPCR of BCL2 and MYC mRNA normalized to GAPDH; assay type: cell-based; conditions: human AML cell lines
Protocol: Quantitative RT-PCR. RNA was isolated using Trizol reagent according to the manufacturer's instructions (Life Technologies). Complementary DNA was synthesized using the SuperScript III First-Strand Synthesis system according to the manufacturer's instructions (Invitrogen). Quantitative real-time PCR was performed using the KAPA SYBR FAST PCR polymerase with 20 ng template and 200 nM primers, according to the manufacturer's instructions (Kapa Biosystems, Wilmington, Mass., USA). PCR primers are listed below. Ct values were calculated using ROX normalization using the ViiA 7 software (Applied Biosystems).

[3] = test system: primary MLL-rearranged AML; experiment: Primary patient derived xenograft, hCD45 staining of bone marrow; assay type: in vivo, NSG mice; conditions: 25 mg/kg daily intraperitoneal, 21 days
Protocol: Mouse studies. All mouse experiments were carried out in accordance with institutional animal protocols. Two hundred thousand primary AML MLL-rearranged leukemia cells were suspended in […] of PBS and transplanted via tail vein injection into 8-week-old sublethally irradiation (200 rad) female NOD.Cg-Prkdc(scid)Il2rg(tm1Wjl)/SzJ mice (The Jackson Laboratory, Bar Harbor, Me., USA). Recipient mice were maintained on antibiotic supplementation in chow (0.025% trimethoprim, 0.124% sulfamethoxazole, Sulfatrim). Three days after transplant, mice were randomly assigned to experimental treatment groups. […]

Structure (SMILES): CC[C@@H](C)[C@@H](NC(=O)[C@@H](CCCCN)NC(=O)[C@@H](CCC(=O)O)NC(=O)[C@@H](CC(C)C)NC(=O)[C@@H](CCC(=O)O)NC(=O)[C@@H](CC(C)C)NC(=O)[C@@H](CC(C)C)NC(=O)[C@@H](CC(C)C)NC(=O)[C@@H](CCSC)NC(=O)[C@@H](CO)NC(=O)[C@H](NC(=O)[C@@H](CCC(=O)O)NC(=O)[C@@H](CC(N)=O)NC(=O)[C@@H](CCC(=O)O)NC(=O)[C@@H](CC(C)C)NC(=O)[C@@H](CCCCN)NC(C)=O)[C@H](C)O)C(=O)N[C@H](CCCNC(=N)N)C(=O)N[C@H](CCCCN)C(=O)NCC(=O)NCC(=O)N[C@H](CCCNC(=N)N)C(=O)N[C@H](CCCNC(=N)N)C(=O)N[C@H](CCCNC(=N)N)C(=O)N[C@H](CCC(N)=O)C(=O)N[C@H](CCCNC(=N)N)C(=O)N[C@H](CCCNC(=N)N)C(=O)N[C@H](CCCCN)C(=O)N[C@H](CCCCN)C(=O)N[C@H](CCCNC(=N)N)C(=O)NCC(=O)N[C@H](Cc1ccc(O)cc1)C(N)=O [MYBMIM]
- AML cell death (live cells on Day 6) [1]: induction of AML cell death
- apoptosis (Annexin-V staining) (MV411 cells): induction of apoptosis
- MYC and BCL2 mRNA expression as a percentage of GAPDH [2]: downregulation
- leukemia burden in bone marrow (hCD45 staining) [3]: decrease in the leukemia burden
